Experimental data published in US20260337208A1, “HETEROCYCLIC DERIVATIVES AS JANUS KINASE INHIBITORS” (CHIESI FARMACEUTICI S.P.A., priority 2022, published 2026).

Legend:
[1] = test system: pSTAT6 in BEAS-2B human cell line; assay: Inhibition of IL-13 induced pSTAT6 in BEAS; type: cell-based; conditions: for IC50: Homo sapiens, BEAS-2B, 0.5 h, IL-13 trigger, 30 min, parent compound; for Fold difference parent vs predicted acid metabolite: ratio=IC50 predicted acid metabolite/IC50 ester
Method in brief: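 BEAS-2B cells grown 48 h, pre-treated 30 min with compound, then stimulated 30 min with IL-13. Lysate pSTAT6 (Tyr641) measured by sandwich ELISA. Eleven 5-fold dilutions from 10 μM, in duplicate, fitted to IC50.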

TYK2 = TYK2 (Homo sapiens, UniProt P29597); assay: Biochemical potency on Tyk2, TR-FRET (LANCE Ultra kinase assay); conditions: ATP corresponding to Km; cell-free; read-out: TYK2 inhibitory activity (pIC50) (converted)
Method in brief: (§1)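 ULight-JAK-1 (Tyr1023) peptide phosphorylation at Km ATP, 1.5 h r.t.; substrate solution held peptide 30/50/20/10 nM and ATP 20/0.7/0.2/12 μM, enzyme solution 0.15/0.083/0.025/0.144 ng/μL (JAK1/JAK2/JAK3/TYK2). EDTA stop, Eu-PT66 antibody TR-FRET read at 665 nm; 11-point 5-fold dilutions from 20 μM; IC50 by variable-slope fit.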

JAK2 = JAK2 (Homo sapiens, UniProt O60674); assay: Biochemical potency on JAK2, TR-FRET (LANCE Ultra kinase assay); conditions: ATP corresponding to Km; cell-free; read-out: JAK2 inhibitory activity (pIC50) (converted)
Method in brief: as §1

JAK3 = biological target: T1, JAK3 (Homo sapiens, UniProt P52333); assay: Biochemical potency on JAK3, TR-FRET (LANCE Ultra kinase assay); conditions: ATP corresponding to Km; cell-free; read-out: JAK3 inhibitory activity (pIC50) (converted)
T1 sequence (P52333 1-1124): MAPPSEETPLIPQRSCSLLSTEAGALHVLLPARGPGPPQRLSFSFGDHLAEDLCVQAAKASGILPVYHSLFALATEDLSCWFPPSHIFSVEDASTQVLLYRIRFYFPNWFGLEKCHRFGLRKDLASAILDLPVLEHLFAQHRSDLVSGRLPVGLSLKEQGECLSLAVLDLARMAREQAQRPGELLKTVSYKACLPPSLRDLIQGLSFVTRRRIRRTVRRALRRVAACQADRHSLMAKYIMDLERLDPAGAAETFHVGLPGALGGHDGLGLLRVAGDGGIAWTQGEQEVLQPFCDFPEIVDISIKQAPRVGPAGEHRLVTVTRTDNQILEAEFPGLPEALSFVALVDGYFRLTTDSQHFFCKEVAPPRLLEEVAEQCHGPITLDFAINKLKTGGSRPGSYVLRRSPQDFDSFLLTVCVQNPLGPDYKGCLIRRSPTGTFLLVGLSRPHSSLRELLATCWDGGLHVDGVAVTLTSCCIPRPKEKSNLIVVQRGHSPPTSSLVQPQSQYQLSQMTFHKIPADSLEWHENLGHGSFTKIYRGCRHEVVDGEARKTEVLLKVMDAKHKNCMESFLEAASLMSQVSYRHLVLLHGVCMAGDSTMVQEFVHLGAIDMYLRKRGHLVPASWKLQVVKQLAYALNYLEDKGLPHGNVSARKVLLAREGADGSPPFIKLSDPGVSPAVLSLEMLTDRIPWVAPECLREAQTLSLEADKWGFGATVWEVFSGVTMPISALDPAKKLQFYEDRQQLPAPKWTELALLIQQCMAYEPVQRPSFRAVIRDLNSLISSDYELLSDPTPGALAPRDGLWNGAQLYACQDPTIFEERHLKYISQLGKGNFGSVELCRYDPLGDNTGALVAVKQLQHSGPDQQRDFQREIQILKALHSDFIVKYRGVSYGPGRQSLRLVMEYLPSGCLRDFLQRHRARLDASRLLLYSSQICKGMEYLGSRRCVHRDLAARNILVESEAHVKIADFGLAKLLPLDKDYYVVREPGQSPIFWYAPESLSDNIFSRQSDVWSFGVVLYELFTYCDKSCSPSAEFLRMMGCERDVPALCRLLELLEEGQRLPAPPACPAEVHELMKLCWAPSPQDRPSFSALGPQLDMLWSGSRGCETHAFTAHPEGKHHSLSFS
Method in brief: as §1

JAK1 = JAK1 (Homo sapiens, UniProt P23458); assay: Biochemical potency on JAK1, TR-FRET (LANCE Ultra kinase assay); conditions: ATP corresponding to Km; cell-free; read-out: JAK1 inhibitory activity (pIC50) (converted)
Method in brief: as §1

Chain of TYK2 (P29597 whole entry): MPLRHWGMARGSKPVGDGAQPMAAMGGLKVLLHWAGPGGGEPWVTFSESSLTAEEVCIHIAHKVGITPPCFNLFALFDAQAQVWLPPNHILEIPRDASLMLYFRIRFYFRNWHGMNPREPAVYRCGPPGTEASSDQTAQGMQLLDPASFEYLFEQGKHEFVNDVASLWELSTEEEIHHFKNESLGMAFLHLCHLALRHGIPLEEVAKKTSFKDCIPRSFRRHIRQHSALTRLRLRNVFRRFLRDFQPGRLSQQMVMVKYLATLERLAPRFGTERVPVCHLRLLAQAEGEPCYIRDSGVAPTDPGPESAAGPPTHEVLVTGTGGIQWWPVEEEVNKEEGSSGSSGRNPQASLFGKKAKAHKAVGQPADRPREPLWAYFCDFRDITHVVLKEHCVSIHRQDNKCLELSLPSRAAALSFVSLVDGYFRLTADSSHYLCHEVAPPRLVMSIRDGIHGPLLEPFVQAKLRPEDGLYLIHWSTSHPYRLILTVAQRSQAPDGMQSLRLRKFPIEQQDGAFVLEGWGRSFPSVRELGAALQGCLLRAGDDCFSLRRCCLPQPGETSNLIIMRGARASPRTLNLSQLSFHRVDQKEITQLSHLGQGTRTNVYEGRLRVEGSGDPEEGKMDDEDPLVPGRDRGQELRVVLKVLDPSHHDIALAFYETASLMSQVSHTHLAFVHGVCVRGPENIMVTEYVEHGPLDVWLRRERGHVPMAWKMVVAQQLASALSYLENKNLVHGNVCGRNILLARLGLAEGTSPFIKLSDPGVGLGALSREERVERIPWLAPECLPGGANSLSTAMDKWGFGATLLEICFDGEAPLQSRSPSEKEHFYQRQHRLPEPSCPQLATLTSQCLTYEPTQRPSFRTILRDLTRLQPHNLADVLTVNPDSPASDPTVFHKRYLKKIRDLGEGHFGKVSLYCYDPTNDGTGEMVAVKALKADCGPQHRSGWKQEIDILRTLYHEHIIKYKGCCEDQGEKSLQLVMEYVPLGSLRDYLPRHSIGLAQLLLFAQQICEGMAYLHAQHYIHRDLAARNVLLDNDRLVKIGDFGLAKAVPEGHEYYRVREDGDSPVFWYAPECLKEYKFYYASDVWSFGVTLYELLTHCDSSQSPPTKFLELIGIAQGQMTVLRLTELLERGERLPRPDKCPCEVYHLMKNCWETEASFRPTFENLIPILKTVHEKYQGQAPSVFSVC
Chain of JAK2 (O60674 whole entry): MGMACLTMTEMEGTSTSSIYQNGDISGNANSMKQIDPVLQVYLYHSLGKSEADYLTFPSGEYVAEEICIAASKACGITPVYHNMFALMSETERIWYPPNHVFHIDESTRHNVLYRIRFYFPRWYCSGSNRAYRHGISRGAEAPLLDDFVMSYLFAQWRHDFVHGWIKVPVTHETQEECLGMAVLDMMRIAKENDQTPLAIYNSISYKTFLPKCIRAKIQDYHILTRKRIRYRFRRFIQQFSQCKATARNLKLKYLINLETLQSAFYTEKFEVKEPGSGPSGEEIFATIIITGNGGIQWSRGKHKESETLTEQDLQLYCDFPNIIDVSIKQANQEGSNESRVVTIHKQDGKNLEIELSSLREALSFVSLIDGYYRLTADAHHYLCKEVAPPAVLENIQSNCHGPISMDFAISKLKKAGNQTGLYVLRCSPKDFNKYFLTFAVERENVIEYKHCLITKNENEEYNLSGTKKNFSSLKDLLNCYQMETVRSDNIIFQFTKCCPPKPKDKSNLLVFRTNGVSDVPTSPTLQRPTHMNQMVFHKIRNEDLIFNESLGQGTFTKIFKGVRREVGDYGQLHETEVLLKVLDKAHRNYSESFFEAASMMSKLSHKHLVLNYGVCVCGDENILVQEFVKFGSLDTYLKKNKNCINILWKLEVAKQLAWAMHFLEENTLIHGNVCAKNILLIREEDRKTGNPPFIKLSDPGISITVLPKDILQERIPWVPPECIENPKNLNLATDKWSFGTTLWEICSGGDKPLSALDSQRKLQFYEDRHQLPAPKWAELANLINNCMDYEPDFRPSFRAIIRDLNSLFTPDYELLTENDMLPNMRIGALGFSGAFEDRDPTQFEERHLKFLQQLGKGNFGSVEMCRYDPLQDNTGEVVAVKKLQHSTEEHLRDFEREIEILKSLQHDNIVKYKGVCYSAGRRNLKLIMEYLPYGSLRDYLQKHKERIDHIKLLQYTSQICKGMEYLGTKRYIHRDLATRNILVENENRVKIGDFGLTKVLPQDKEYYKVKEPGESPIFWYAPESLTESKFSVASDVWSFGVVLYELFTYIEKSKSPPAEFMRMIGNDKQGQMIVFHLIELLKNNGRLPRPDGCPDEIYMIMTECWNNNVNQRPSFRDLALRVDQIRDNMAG
Chain of JAK1 (P23458 whole entry): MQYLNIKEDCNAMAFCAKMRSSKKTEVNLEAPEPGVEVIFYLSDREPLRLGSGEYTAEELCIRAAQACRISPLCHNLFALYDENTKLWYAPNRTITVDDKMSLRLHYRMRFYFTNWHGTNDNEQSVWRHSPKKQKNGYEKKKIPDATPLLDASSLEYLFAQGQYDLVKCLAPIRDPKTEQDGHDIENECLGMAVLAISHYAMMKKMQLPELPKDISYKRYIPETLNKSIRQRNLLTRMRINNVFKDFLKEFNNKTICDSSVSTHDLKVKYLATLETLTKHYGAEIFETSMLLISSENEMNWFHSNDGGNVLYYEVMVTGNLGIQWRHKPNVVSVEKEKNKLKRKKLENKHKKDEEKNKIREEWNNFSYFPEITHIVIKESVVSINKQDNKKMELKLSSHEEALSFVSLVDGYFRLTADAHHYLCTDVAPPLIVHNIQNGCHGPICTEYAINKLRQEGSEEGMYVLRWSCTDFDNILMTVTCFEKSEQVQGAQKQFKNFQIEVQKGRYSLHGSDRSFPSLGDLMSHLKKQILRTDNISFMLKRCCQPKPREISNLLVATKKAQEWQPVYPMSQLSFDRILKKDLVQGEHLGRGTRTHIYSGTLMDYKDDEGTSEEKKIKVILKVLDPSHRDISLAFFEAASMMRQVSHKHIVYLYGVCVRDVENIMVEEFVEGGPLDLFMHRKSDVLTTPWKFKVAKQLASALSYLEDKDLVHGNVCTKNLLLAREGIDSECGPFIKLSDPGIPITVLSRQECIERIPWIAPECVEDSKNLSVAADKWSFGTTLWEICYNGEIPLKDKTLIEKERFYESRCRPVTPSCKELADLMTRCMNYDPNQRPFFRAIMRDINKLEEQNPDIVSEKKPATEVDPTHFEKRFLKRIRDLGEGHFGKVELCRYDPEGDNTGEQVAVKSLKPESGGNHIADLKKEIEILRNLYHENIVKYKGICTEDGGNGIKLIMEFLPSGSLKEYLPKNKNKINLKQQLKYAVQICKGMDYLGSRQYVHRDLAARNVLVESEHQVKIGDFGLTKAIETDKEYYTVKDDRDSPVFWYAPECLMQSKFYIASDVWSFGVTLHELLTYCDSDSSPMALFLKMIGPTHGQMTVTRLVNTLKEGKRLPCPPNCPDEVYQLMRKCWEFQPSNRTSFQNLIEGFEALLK

| SMILES | IC50 (TYK2) [nM] | IC50 (JAK2) [nM] | IC50 (JAK3) [nM] | IC50 (JAK1) [nM] | IC50 [1] [nM] | Fold difference parent vs predicted acid metabolite [1] |
| --- | --- | --- | --- | --- | --- | --- |
| COc1cc2c(cc1-n1nc(C(=O)NCCN3CCC(C(=O)OCC(C)(C)N(C)C)CC3)c3cnc(-c4cnn5cccnc45)cc31)OCCN2 [Example 20, 2-(dimethylamino)-2-methylpropyl 1-(2-(1-(6-methoxy-3,4-dihydro-2H-benzo[b][1,4]oxazin-7-yl)-6-(pyrazolo[1,5-a]pyrimidin-3-yl)-1H-pyrazolo[4,3-c]pyridine-3-carboxamido)ethyl)piperidine-4-carboxylate] | 5.01 to 50.1 | ≤ 5.01 | ≤ 5.01 | ≤ 5.01 | 5.01 to 50.1 | kkk (200>ratio≥100) |
| COc1cc2c(cc1-n1nc(C(=O)NCCN3CCC(C(=O)OC4CN(C)C4)CC3)c3cnc(-c4cnn5cccnc45)cc31)OCCN2 [Example 21, 1-methylazetidin-3-yl 1-(2-(1-(6-methoxy-3,4-dihydro-2H-benzo[b][1,4]oxazin-7-yl)-6-(pyrazolo[1,5-a]pyrimidin-3-yl)-1H-pyrazolo[4,3-c]pyridine-3-carboxamido)ethyl)piperidine-4-carboxylate] | 5.01 to 50.1 | ≤ 5.01 | ≤ 5.01 | ≤ 5.01 | ≤ 5.01 | kkkk (ratio≥200) |
| COc1cc2c(cc1-n1nc(C(=O)NCCN3CCC(C(=O)O[C@@H]4CCN(C)C4)CC3)c3cnc(-c4cnn5cccnc45)cc31)OCCN2 [Example 23, (R)-1-methylpyrrolidin-3-yl 1-(2-(1-(6-methoxy-3,4-dihydro-2H-benzo[b][1,4]oxazin-7-yl)-6-(pyrazolo[1,5-a]pyrimidin-3-yl)-1H-pyrazolo[4,3-c]pyridine-3-carboxamido)ethyl)piperidine-4-carboxylate] | 5.01 to 50.1 | ≤ 5.01 | ≤ 5.01 | ≤ 5.01 | 5.01 to 50.1 | kkk (200>ratio≥100) |

The next lines start with results.

| IC50 (TYK2) [nM] | IC50 (JAK2) [nM] | IC50 (JAK3) [nM] | IC50 (JAK1) [nM] | SMILES | IC50 [1] [nM] | Fold difference parent vs predicted acid metabolite [1] |
| --- | --- | --- | --- | --- | --- | --- |
| 5.01 to 50.1 | ≤ 5.01 | ≤ 5.01 | 5.01 to 50.1 | COc1cc2c(cc1-n1nc(C(=O)NCCN3CCC(C(=O)OC4CCN(C)C4)CC3)c3cnc(-c4cnn5cccnc45)cc31)OCCN2 (stereo not drawn) [Example 22, 1-methylpyrrolidin-3-yl 1-(2-(1-(6-methoxy-3,4-dihydro-2H-benzo[b][1,4]oxazin-7-yl)-6-(pyrazolo[1,5-a]pyrimidin-3-yl)-1H-pyrazolo[4,3-c]pyridine-3-carboxamido)ethyl)piperidine-4-carboxylate] | 5.01 to 50.1 | kkk (200>ratio≥100) |
| 5.01 to 50.1 | ≤ 5.01 | ≤ 5.01 | ≤ 5.01 | COc1cc2c(cc1-n1nc(C(=O)NCCN3CCC(C(=O)O[C@H]4CCN(C)C4)CC3)c3cnc(-c4cnn5cccnc45)cc31)OCCN2 [Example 24, (S)-1-methylpyrrolidin-3-yl 1-(2-(1-(6-methoxy-3,4-dihydro-2H-benzo[b][1,4]oxazin-7-yl)-6-(pyrazolo[1,5-a]pyrimidin-3-yl)-1H-pyrazolo[4,3-c]pyridine-3-carboxamido)ethyl)piperidine-4-carboxylate] | 5.01 to 50.1 | kkk (200>ratio≥100) |
| 5.01 to 50.1 | ≤ 5.01 | ≤ 5.01 | ≤ 5.01 | COc1cc2c(cc1-n1nc(C(=O)NCCN3CCC(C(=O)OCC(C)(C)C#N)CC3)c3cnc(-c4cnn5cccnc45)cc31)OCCN2 [Example 25, 2-cyano-2-methylpropyl 1-(2-(1-(6-methoxy-3,4-dihydro-2H-benzo[b][1,4]oxazin-7-yl)-6-(pyrazolo[1,5-a]pyrimidin-3-yl)-1H-pyrazolo[4,3-c]pyridine-3-carboxamido)ethyl)piperidine-4-carboxylate] | ≤ 5.01 | kkkk (ratio≥200) |
